For orientation: IC50 means the point on the concentration scale where inhibition reaches its midpoint.

Consider four molecules from patent publication US10670605B2, “Cysteine reactive probes and uses thereof” (The Scripps Research Institute, priority 2015, dated 2020).

Holding throughout (format): binding
For one assay, the target named is pro-CASP10 (Homo sapiens, UniProt Q92851). Description: Blockade of probe 61 labeling of pro-CASP10.
A further assay concerns the target T1, pro-CASP8 (Homo sapiens, UniProt Q14790, D374A/D384A).
T1 construct: a truncated CASP8 (residues 217-479) without the CARD domain; His6 (C); made in house; host or cells: E. coli BL21(DE3)pLysS
Description: Click probe 61 labeling of pro-CASP8 and its competition. The following applies: 300 nM protein in MDA-MB-231 lysate; read-out: apparent IC50 for blockade of 61 labeling of pro-CASP8.

A further assay addresses T2, IMPDH2 (C140) (Homo sapiens, UniProt P12268).
T2 construct: Full length cDNAs encoding for IDH1 (Open Biosystems, Clone ID: 3880331) and IMPDH2 (Open Biosystems, Clone ID: 3447994); His6 (C); made in house; host or cells: E. coli BL21(DE3)
Description: Click probe 18 labeling of recombinant IMPDH2 and its competition. The following applies: for inhibition of 18 labeling of IMPDH2 by nucleotides: 500 μM of each nucleotide.

Sequence of pro-CASP10 (Q92851 220-521): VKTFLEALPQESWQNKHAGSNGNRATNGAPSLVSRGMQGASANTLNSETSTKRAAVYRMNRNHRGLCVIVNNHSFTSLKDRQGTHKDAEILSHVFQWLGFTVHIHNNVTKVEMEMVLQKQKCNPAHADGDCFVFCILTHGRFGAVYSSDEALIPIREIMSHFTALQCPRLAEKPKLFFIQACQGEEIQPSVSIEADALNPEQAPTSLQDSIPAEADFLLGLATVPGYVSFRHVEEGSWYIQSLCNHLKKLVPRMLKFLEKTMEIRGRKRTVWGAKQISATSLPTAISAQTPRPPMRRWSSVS
T1 sequence (Q14790 217-479 D374A/D384A): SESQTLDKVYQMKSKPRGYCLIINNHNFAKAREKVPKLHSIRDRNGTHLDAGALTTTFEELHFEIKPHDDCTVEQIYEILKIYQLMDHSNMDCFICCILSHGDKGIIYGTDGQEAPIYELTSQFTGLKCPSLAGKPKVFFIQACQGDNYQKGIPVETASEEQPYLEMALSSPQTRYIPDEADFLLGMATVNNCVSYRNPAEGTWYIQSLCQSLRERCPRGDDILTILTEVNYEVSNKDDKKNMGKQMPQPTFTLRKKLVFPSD

Turning to `O=C(c1ccc(N2CCOCC2)cc1)N1CCC[C@H](N(C(=O)CCl)c2ccccc2)C1` [63-S], the “activity against CASP10 (in words)” value on pro-CASP10 is “inactive against CASP10”. Also, the IC50 on pro-CASP8 was determined as 15 µM.
For the molecule `Nc1ncnc2c1ncn2[C@@H]1O[C@H](COP(=O)(O)O)[C@@H](O)[C@H]1O` [AMP], the “inhibition of 18 labeling of IMPDH2 by nucleotides” value (from here on “inhibition of 18 labeling of IMPDH2”) at IMPDH2 (C140) is “inhibited”.
Regarding `Nc1ncnc2c1ncn2[C@@H]1O[C@H](COP(=O)(O)OP(=O)(O)OP(=O)(O)O)[C@@H](O)[C@H]1O` [ATP], the “inhibition of 18 labeling of IMPDH2” value on IMPDH2 (C140) is “inhibited”. The IC50 on IMPDH2 (C140) (probe 18 25 μM, ATP 15 min pre-incubation, read-out: IC50 for blockade of 18 labeling of IMPDH2) is 45 µM.
Take `Nc1nc2c(ncn2[C@@H]2O[C@H](COP(=O)(O)OP(=O)(O)OP(=O)(O)O)[C@@H](O)[C@H]2O)c(=O)[nH]1` [GTP]: the “inhibition of 18 labeling of IMPDH2” value on IMPDH2 (C140) was “inhibited”.
